In ChEMBL document CHEMBL1201862, “PubChem BioAssay data set” (2004):
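Cultured in 96-well plates, cells were exposed to test compound for 48 hours across five concentrations. GI50 = concentration required for 50% inhibition of growth.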 Activity calls are given as the source filed them. No stated cut-off is given here; in the data, active = GI50 up to about 1.1 µM and inactive = higher.

Experiments:
Experiment in all cases: growth of human tumour cells (NCI), 48 h
COLO 205 = system: COLO 205
PC-3 = system: PC-3
SNB-19 = system: SNB-19
SK-MEL-28 = system: SK-MEL-28
TK-10 = system: TK-10
SNB-75 = system: SNB-75
SF-295 = system: SF-295
NCI-H522 = system: NCI-H522
SR = system: SR
SK-MEL-2 = system: SK-MEL-2
HOP-62 = system: HOP-62
UO-31 = system: UO-31
M14 = system: M14
CAKI-1 = system: CAKI-1
MDA-MB-231 = system: MDA-MB-231
BT-549 = system: BT-549
U-251 = system: U-251
SF-268 = system: SF-268
Malme-3M = system: Malme-3M
EKVX = system: EKVX

SMILES | GI50 (COLO 205) | GI50 (PC-3) | GI50 (SNB-19) | GI50 (SK-MEL-28) | GI50 (TK-10) | GI50 (SNB-75) | GI50 (SF-295) | GI50 (NCI-H522) | GI50 (SR) | GI50 (SK-MEL-2) | GI50 (HOP-62) | GI50 (UO-31) | GI50 (M14) | GI50 (CAKI-1) | GI50 (MDA-MB-231) | GI50 (BT-549) | GI50 (U-251) | GI50 (SF-268) | GI50 (Malme-3M) | GI50 (EKVX)
CCOC(=O)c1ccc(-c2cccs2)n1C | > 100 µM (inactive) | > 100 µM (inactive) | > 100 µM (inactive) | > 100 µM (inactive) | > 100 µM (inactive) | > 100 µM (inactive) | > 95.3 µM (inactive) | 51.6 µM (inactive) | > 64.9 µM (inactive) | > 100 µM (inactive) | > 55.5 µM (inactive) | 43.7 µM (inactive) | > 100 µM (inactive) | > 100 µM (inactive) | > 100 µM (inactive) | > 83 µM (inactive) | > 100 µM (inactive) | > 100 µM (inactive) | > 67.1 µM (inactive) | 48.5 µM (inactive)
CC(=O)C(=[N+]=[N-])C(=O)NCC#N | > 10 µM (inactive) | > 10 µM (inactive) | > 10 µM (inactive) | > 10 µM (inactive) | > 10 µM (inactive) | 0.441 µM (active) | > 10 µM (inactive) | > 10 µM (inactive) | > 10 µM (inactive) | > 10 µM (inactive) | > 10 µM (inactive) | > 10 µM (inactive) | > 10 µM (inactive) | > 10 µM (inactive) | > 10 µM (inactive) | > 10 µM (inactive) | > 10 µM (inactive) | > 10 µM (inactive) | > 10 µM (inactive) | > 10 µM (inactive)
O=C(/C=C/c1ccco1)CC(=O)/C=C/c1ccco1 | > 10 µM (inactive) | > 10 µM (inactive) | 15.5 µM (inactive) | 12.2 µM (inactive) | 26.3 µM (inactive) | 18 µM (inactive) | > 10 µM (inactive) | 7.31 µM (inactive) | 4.66 µM (inactive) | 14.3 µM (inactive) | 11.7 µM (inactive) | 13.3 µM (inactive) | 14.7 µM (inactive) | 14.7 µM (inactive) | > 10 µM (inactive) | 18.2 µM (inactive) | 13.7 µM (inactive) | > 10 µM (inactive) | 13 µM (inactive) | 20.5 µM (inactive)
O=c1c2nn3c(=O)n(-c4ccccc4)c(=O)c3nn2c(=O)n1-c1ccccc1 | > 100 µM (inactive) | > 100 µM (inactive) | > 100 µM (inactive) | > 100 µM (inactive) | > 100 µM (inactive) | 81.3 µM (inactive) | 54.1 µM (inactive) | > 100 µM (inactive) | > 100 µM (inactive) | > 100 µM (inactive) | > 100 µM (inactive) | > 100 µM (inactive) | > 100 µM (inactive) | > 100 µM (inactive) | > 100 µM (inactive) | > 100 µM (inactive) | > 100 µM (inactive) | > 100 µM (inactive) | > 100 µM (inactive) | > 100 µM (inactive)
C=C1C(=O)O[C@H]2C1C[C@@H](O)/C(C)=C/CC[C@@]1(C)O[C@H]21 (stereo not given in full) | 4.93 µM (inactive) | 23 µM (inactive) | 52 µM (inactive) | 15.2 µM (inactive) | 12 µM (inactive) | 16.4 µM (inactive) | > 55.1 µM (inactive) | 2.97 µM (inactive) | 7.64 µM (inactive) | 24.3 µM (inactive) | > 59.6 µM (inactive) | 18.7 µM (inactive) | 9.35 µM (inactive) | 3.03 µM (inactive) | 18.6 µM (inactive) | 8.04 µM (inactive) | 24.4 µM (inactive) | 39 µM (inactive) | 4.08 µM (inactive) | 12.2 µM (inactive)
CCOC(=O)N(Cc1cccs1)c1cc(OC)c(OC)c(OC)c1 | 7.18 µM (inactive) | 33.1 µM (inactive) | > 100 µM (inactive) | > 100 µM (inactive) | > 100 µM (inactive) | 49.4 µM (inactive) | > 100 µM (inactive) | 32.6 µM (inactive) | 21.3 µM (inactive) | 26.5 µM (inactive) | > 100 µM (inactive) | 38.4 µM (inactive) | > 100 µM (inactive) | 56.5 µM (inactive) | 75 µM (inactive) | 40.6 µM (inactive) | > 100 µM (inactive) | > 100 µM (inactive) | > 100 µM (inactive) | > 100 µM (inactive)
Cc1ccc(-n2cc(-c3ccc(Cl)cc3)c3c2N=CN2N=C(c4ccco4)NC32)cc1 (stereo not given) | 9.18 µM (inactive) | 12.8 µM (inactive) | 14.3 µM (inactive) | 71 µM (inactive) | 7.5 µM (inactive) | 4.75 µM (inactive) | 6.11 µM (inactive) | 15.8 µM (inactive) | 0.78 µM (active) | 10 µM (inactive) | 7.64 µM (inactive) | 5.05 µM (inactive) | 28.8 µM (inactive) | 10.1 µM (inactive) | 5 µM (inactive) | 26.2 µM (inactive) | 5.46 µM (inactive) | 15.3 µM (inactive) | 31.3 µM (inactive) | 17.7 µM (inactive)
CC(=O)NCCSC(=O)c1ccccc1 | 0.158 µM (active) | 0.525 µM (active) | 0.916 µM (active) | 0.268 µM (active) | 0.126 µM (active) | 0.741 µM (active) | 0.147 µM (active) | 0.215 µM (active) | 0.0146 µM (active) | 0.295 µM (active) | 0.148 µM (active) | 0.264 µM (active) | 0.0923 µM (active) | 0.0226 µM (active) | 1.98 µM (inactive) | 0.946 µM (active) | 0.166 µM (active) | 0.0977 µM (active) | 0.119 µM (active) | 2.77 µM (inactive)
S=C1Cc2c(-c3ccc(Cl)cc3)cc(-c3ccccc3)nc2-c2ccccc2N1 | 16 µM (inactive) | 15.2 µM (inactive) | 4.5 µM (inactive) | 13.8 µM (inactive) | 12.3 µM (inactive) | 3.76 µM (inactive) | 14.2 µM (inactive) | 15.7 µM (inactive) | > 100 µM (inactive) | 17.7 µM (inactive) | 6.98 µM (inactive) | 14.8 µM (inactive) | 12.8 µM (inactive) | 3.95 µM (inactive) | 7.8 µM (inactive) | 16.6 µM (inactive) | 4.03 µM (inactive) | 14.3 µM (inactive) | 13.8 µM (inactive) | 15.6 µM (inactive)
CC(C)(C)OC(=O)N1C(C2=COc3ccccc3O2)=COc2ccccc21 | 19.4 µM (inactive) | 32.8 µM (inactive) | 34.9 µM (inactive) | 30.1 µM (inactive) | 33.6 µM (inactive) | 35 µM (inactive) | 26.9 µM (inactive) | 16 µM (inactive) | 21.1 µM (inactive) | 22 µM (inactive) | 15.5 µM (inactive) | 30 µM (inactive) | 27.7 µM (inactive) | 38 µM (inactive) | 23.1 µM (inactive) | 24.8 µM (inactive) | 32.1 µM (inactive) | 21.3 µM (inactive) | 22.9 µM (inactive) | 16.8 µM (inactive)
CC(C)C(Cl)CC/C(CBr)=C(\Cl)CCl (stereo not given) | 5.46 µM (inactive) | 10.7 µM (inactive) | 14.6 µM (inactive) | 3.37 µM (inactive) | 14.5 µM (inactive) | 2.01 µM (inactive) | 16.3 µM (inactive) | 0.794 µM (active) | 1.69 µM (inactive) | 2.1 µM (inactive) | 17.1 µM (inactive) | 16.9 µM (inactive) | 1.85 µM (inactive) | 7.08 µM (inactive) | 3.3 µM (inactive) | 2.05 µM (inactive) | 10.6 µM (inactive) | 7.18 µM (inactive) | 6.71 µM (inactive) | 19.6 µM (inactive)
O=C(N/N=C\c1ccc([N+](=O)[O-])cc1)Nc1ccc2ccccc2c1 | 24.7 µM (inactive) | 44.8 µM (inactive) | 52.1 µM (inactive) | 46.5 µM (inactive) | 37.5 µM (inactive) | 27.2 µM (inactive) | 49.4 µM (inactive) | 24.6 µM (inactive) | 20.6 µM (inactive) | > 100 µM (inactive) | 22.2 µM (inactive) | 82.4 µM (inactive) | 32.4 µM (inactive) | 37.5 µM (inactive) | 26.1 µM (inactive) | 45.4 µM (inactive) | 21.4 µM (inactive) | 35.1 µM (inactive) | 22.5 µM (inactive) | 44.6 µM (inactive)
CC(C)c1[nH]nc(C(N)=O)c1/N=N/N(C)C | 67.9 µM (inactive) | > 100 µM (inactive) | > 100 µM (inactive) | > 100 µM (inactive) | 64.7 µM (inactive) | 44.8 µM (inactive) | 64.7 µM (inactive) | 24.4 µM (inactive) | 17.1 µM (inactive) | > 100 µM (inactive) | > 100 µM (inactive) | 0.237 µM (active) | > 100 µM (inactive) | 16 µM (inactive) | > 100 µM (inactive) | 34.9 µM (inactive) | 49.7 µM (inactive) | 59.8 µM (inactive) | > 100 µM (inactive) | 47.9 µM (inactive)
C=C1CC(Cn2cc(Br)c(=O)[nH]c2=O)(c2ccc(-c3ccccc3)cc2)OC1=O (stereo not given) | 0.621 µM (active) | 1.55 µM (inactive) | 12.6 µM (inactive) | 0.221 µM (active) | 0.432 µM (active) | 4.49 µM (inactive) | 4.45 µM (inactive) | 0.655 µM (active) | 0.32 µM (active) | 1.49 µM (inactive) | 4.23 µM (inactive) | 2.03 µM (inactive) | 1.43 µM (inactive) | 1.13 µM (inactive) | 3.08 µM (inactive) | 1.66 µM (inactive) | 5.92 µM (inactive) | 2.02 µM (inactive) | 1.56 µM (inactive) | 2.16 µM (inactive)
